Measured values reported in patent US8048455B2, “Treatment of cancer and inflammatory disorder” (Academia Sinica, priority 2006, dated 2011).

Legend:
human COX-2 promoter = assay: COX-2 promoter-driven luciferase reporter assay in TPA-treated B16 melanoma cells; assay type: cell-based, murine; details: reference control
Description: A double-mutated COX-2 promoter containing mutations on both NF-κB sites was also constructed (FIG. 2). PPGL-3-Basic vector was used as a negative control in luciferase assays. COX-2 reporter activity in arbitrary units (AU) was normalized to that for the Renilla luciferase reporter.
Murine melanoma B-16 cells co-transfected with the full-length pCOX-2-Luc and internal control plasmid pRL-TK-Luc plasmid constructs were stimulated without (control) or with TPA, in the absence or presence of the indicated concentrations of CREa8. An amount of 10 μg of total protein lysate was subjected to dual luciferase reporter assay. The induction fold of COX promoter activity by TPA treatment only is presented as 100%. The statistical analyses between […] and CREa8, aspirin, or indomethacin (Indo.) treatment were performed using Student's t-test.
B-16 cells were co-transfected with the full-length pCOX-2-Luc and internal control Renilla pRL-TK-Luc plasmid constructs with the LIPOFECTAMINE reagent (Invitrogen). The cells were then stimulated with vehicle (0.001% DMSO) or with 50 ng/mL TPA, in the absence or presence of dLGG for 6 hours. Ten μg of total protein lysate prepared with Passive Lysis Buffer (Promega) was subjected to dual luciferase reporter assay. The induction fold of COX-2 promoter activity by TPA treatment only is presented as 100%.
The contribution of specific cis-acting element binding sites on the transcription of COX-2 was examined. Data were obtained from 2 to 3 experiments with 3 to 6 replicates and expressed as mean±SD. Two-way ANOVA was used to analyze significance of differences.

NF-κB•DNA complex = assay: Electrophoretic mobility shift assay of NF-κB binding to consensus DNA in LPS-stimulated RAW 264.7 cells; assay type: cell-based, murine; details: 100 μM, LPS 1 μg/mL, 90 min
Experimental: EMSA was performed with the […]™ Chemiluminescent EMSA kit (Pierce Biotechnology, Rockford, Ill.). […] The DNA-protein complexes were subjected to 5-10% gradient PAGE. Competition assay with unlabeled oligonucleotide (cold DNA) was performed in parallel. […]

NO = assay: Plasma nitrite concentration in SNP-treated mice; assay type: in vivo, Female ICR mice; details: topical pretreatment 30 min before SNP; dLGG 10 mg/site, PTIO 3.5 mg/site
Experimental: Female ICR mice were topically treated on their shaven back area of a 2-cm diameter (3.14 cm^2/site/mouse) with vehicle control (acetone), SNP (positive control), or with dLGG or PTIO for 30 minutes before SNP application. Mouse plasma samples were subjected to determine the nitrite content followed a published method (Moshage et al. Clin Chem 1995; 41:892-6).
To examine the capability of dLGG to scavenge NO in vivo, the plasma NO concentration in SNP-insulted mice was determined with or without pretreatment with dLGG. Female ICR mice were transdermally treated with 200 μL acetone (vehicle control) or SNP (5.96 mg/site) only for 15 minutes, or pre-treated with dLGG (10 mg/site) or PTIO (3.5 mg/site) for 30 minutes before SNP treatment.

B16 melanoma = assay: In vivo inhibition of B16 melanoma growth in C57BL/6J mice
Experimental: The chemopreventive effect of the CREa8 subfraction was evaluated on tumor growth using the B16 melanoma C57BL/6J mouse system. Six-week-old animals (4 groups of mice, 5 in each group) were used in this experiment. Group 1 mice (Sham control) were intraperitoneally (i.p.) injected with 20 μL of DMSO every 2 days throughout the experimental period, except 100 μL PBS was injected on day 0. Group 4 mice (Tumor control) were pre-treated with DMSO every 2 days, starting from day—14, for 2 weeks, inoculated with B16 tumor cells (1×10^6 cells/100 μL PBS) subcutaneously (s.c.) on the abdominal area on day 0, and then injected with DMSO every 2 days until day 21. Group 2 mice were i.p. pre-treated with CREa8 (10 mg/kg body weight per dose) every 2 days, starting from day—14, for 2 weeks, s.c. inoculated with B16 tumor cells on day 0, and then continuously treated with CREa8 (i.p.) every 2 days until day 21. Group 3 mice were similarly pre-treated with DMSO every 2 days for 2 weeks, inoculated with B16 tumor cells on day 0, and then treated with cisplatin (i.p.) every 2 days until day 21. The test mice were monitored daily, and body weights and tumor size (average of 2 dimensions) recorded every 2 days. At the end of the experiment (day 21), tumors were excised and weighed.
The cancer prevention efficacy of the dLGG-rich fraction (CREa8) was examined in vivo in 4 groups of mice according to the method described above. Cisplatin, a cancer chemotherapeutic, was used as a reference control.

With `CC(=O)Oc1ccccc1C(=O)O` [aspirin, reference compound] as the molecule, how does the “Suppression of COX-2 promoter activity” value (human COX-2 promoter; 45 μg/mL) read?
The value was 19%.

Which “Inhibition of NF-κB•DNA complex formation (structure-activity study)” value (shortened to “Inhibition”) (NF-κB•DNA complex) does the source give for `CC/C=C\C/C=C\C/C=C\CCCCCCCC(=O)OC[C@@H](O)CO[C@@H]1O[C@H](CO)[C@H](O)[C@H](O)[C@H]1O` [1LGG, 1-O-α-linolenoyl-3-O-β-galactopyranosyl-sn-glycerol] here?
Its value is “less effective than dLGG and dLG”.

How did the “Suppression of COX-2 promoter activity” value (human COX-2 promoter; 15 μg/mL) turn out when `COc1ccc2c(c1)c(CC(=O)O)c(C)n2C(=O)c1ccc(Cl)cc1` [indomethacin, reference compound] was run?
The value was 28%.

Which “Inhibition” value (NF-κB•DNA complex) does the source give for `CCCCCCCCCCCCCCCCCC(=O)O` [SA, stearic acid, reference compound] here?
Its value is “little or no detectable effect”.

Which “Inhibition” value (NF-κB•DNA complex) does the source give for `CC/C=C\C/C=C\C/C=C\CCCCCCCC(=O)OC[C@H](CO)OC(=O)CCCCCCC/C=C\C/C=C\C/C=C\CC` [dLG, 1,2-di-O-α-linolenoyl-sn-glycerol] here?
Its value is “almost completely inhibited”.

Which “SNP-induced increase of nitrite plasma concentration” value (NO) does the source give for `CC1(C)N([O])C(c2ccccc2)=[N+]([O-])C1(C)C` [PTIO, 2-phenyl-4,4,5,5-tetramethylimidazoline-1-oxyl-3-oxide, reference compound] here?
The value was “suppressed”.

`N.N.[Cl][Pt][Cl]` [cisplatin] was tested. Which Average tumor size (B16 melanoma; day 7, i.p. every 2 days, tumor control 0.73 cm) did it give?
Its Average tumor size is 0.29 cm.

What about the “Average tumor size, of the tumor control” value (B16 melanoma; day 17) of the same molecule?
The value was 73%.

And the “Tumor weight to body weight ratio” value (B16 melanoma; day 21, tumor control 31.3%)?
The value was 25.2%.

What about the “Body weights versus other groups” value (B16 melanoma; throughout treatment) of the same molecule?
The value was “no significant differences”.

With `CC/C=C\C/C=C\C/C=C\CCCCCCCC(=O)O[C@H](CO)CO[C@@H]1O[C@H](CO)[C@H](O)[C@H](O)[C@H]1O` [2LGG, 2-O-α-linolenoyl-3-O-β-galactopyranosyl-sn-glycerol] as the molecule, how does the “Inhibition” value (NF-κB•DNA complex) read?
The value was “less effective than dLGG and dLG”.
